Earlier results as cited in paper PMC6384891, “An automated microliter-scale high-throughput screening system (MSHTS) for real-time monitoring of protein aggregation using quantum-dot nanoprobes” (Scientific Reports, 2019).

Test system: Aβ
Parameters: method as in PMID 15511626
Conditions: cited from earlier work

Tannic acid
inhibition of Aβ aggregation (in words): dose-dependently inhibited
